Assay [1] has as its system PTEN-P2/GFP prostate cancer cells. Put plainly: Effect of 1,4-naphthoquinone analogs on PTEN-P2/GFP cell proliferation (WST-1 cell viability, 24 h). The class given is cell-based. The following applies: Mus musculus, WST-1, medium with 10% FBS and DHT, read-out: PTEN-P2/GFP cell proliferation, percent of control. An outline of the steps:
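PTEN-P2/GFP cells, 8000/well, in medium with 10% FBS and 10^−8M DHT, dosed next day with increasing analog concentrations (constant DMSO) for 24 h at 37 °C, 5% CO2. Viability read by WST-1 after 3 h at 37 °C, OD at 460 nm.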
On the technique in general: Formazan colour is commonly taken as a measure of viable cells.

Assay [2] deals with H2B-GFP-PTEN-P2 tumor cells. Put plainly: In vivo effect combined with castration in the pseudo-orthotopic chamber model for prostate cancer. Also noted: species or system mouse. As to conditions: orally once a day in sesame seed oil, equimolar to 1 mg/kg plumbagin, castrated male nu/nu mice. The source says:
A syngeneic pseudo-orthotopic in vivo model was developed to study the early steps of prostate cancer. Chambers are surgically placed into the dorsal skinfold of male mice. Briefly, male mice (25-30 g body weight) are anesthetized and placed on a heating pad. Two symmetrical titanium frames are implanted into the dorsal skinfold. A circular layer is excised from one of the skin layers. The underlying muscle and subcutaneous tissues are covered with a glass coverslip incorporated in one of the frames. After a recovery period of 2-3 days, stoma tissue and tumor cells are carefully placed in the chamber.
Male Nude mice (25-35 g body weight) are anesthetized (7.3 mg ketamine hydrochloride and 2.3 mg xylazine/100 g body weight, i.p.) and placed on a heating pad. Two symmetrical titanium frames are implanted into a dorsal skinfold, so as to sandwich the extended double layer of skin. […]
Liquid overlay plates are generated using 1% Agarose melted in DMEM that is added to round-bottom 96-well plates (50 ul/well). […] Viability is determined using Trypan blue. […]. The size of the implanted spheroid can be determined precisely to minimize variations between animals. […]
Fluorescence microscopy is performed using a Mikron Instrument Microscope equipped with epi-illuminator and video-triggered stroboscopic illumination from a xenon arc (MV-7600, EG&G). […]

`COc1cccc2c1C(=O)C=CC2=O` [Analog F51, 5-methoxy-1,4-naphthoquinone]: the activity at 1 µM in assay [1] (1 μM) was 103%. The activity at 2 µM in assay [1] (2 μM) was found to be 104%. Moreover, the activity at 3 µM in assay [1] (3 μM) was 105%. Moreover, the activity at 4 µM in assay [1] (4 μM) is 105%. Besides, the activity at 5 µM in assay [1] (5 μM) worked out at 103%. Moreover, the activity at 6 µM in assay [1] (6 μM) is 94%. Besides, the activity at 7 µM in assay [1] (7 μM) was 85.7%. Further, the activity at 10 µM in assay [1] (10 μM) turned out to be 43.4%. The activity at 25 µM in assay [1] (25 μM) was 9.58%. The activity at 50 µM in assay [1] (50 μM) was 10.3%. Also, in assay [2], the “in vivo efficiency of combination treatment with castration compared with plumbagin and castration (FIG. 9)” value is “more efficient in vivo than treatment with plumbagin and castration”.

Take `O=C1C=C(Nc2ccccc2)C(=O)c2ccccc21` [Analog F35, 2-(phenylamino)naphthalene-1,4-dione]: in assay [2], the “in vivo efficiency of combination treatment with castration compared with plumbagin and castration (FIG. 9)” value is “more efficient in vivo than treatment with plumbagin and castration”.

Values taken from US10577315B2, “Compositions and methods for treatment of prostate carcinoma” (Pellficure Pharmaceuticals, Inc., priority 2014, dated 2020).
